Experimental data as given in patent US20120195856A1, “Method of treating patients with cardiovascular illness” (priority 2011, published 2012).
Read-outs that look alike come from different tables or passages of the source.

Assays:
[1] = design: species or system human; settings: in vivo
Description: The use of the antiviral drug is not useful for a longer period, as the remission period begins for the patient and the drug is ineffective.

[2] = format: in vivo, human
Description: Example 1. Patient, came to the clinic with a diagnosis of ischemic heart disease. Exertional angina, functional class III. Postinfarction cardiosclerosis (myocardial infarction in 1981). Atherosclerosis of the coronary arteries. Circulatory deficiency stage IIA. Cerebral atherosclerosis. Chronic cerebral impairment. Symptomatic hypertension. At arrival, complained of a squeezing pain in the area of the heart with radiation to the right hand, which arise both at rest and during physical activity (up to 4-5 times per day) and were relieved by taking nitroglycerin (up to 8 times per day), as well as shortness of breath while walking, vertigo, periodic headaches, ringing in the ears, irritability, and insomnia. The patient was prescribed treatment: anti-angina drugs (Nitrosorbidum 30 mg/day, Corinfar 30 mg/day; also has hypotensive activity), and Valacyclovir 2 tablets (1.0 g) three times a day. […] The atherogenesis index fell from 4.74 to 3.38, and there was an increase in cholesterol/HDL from 1.17 mmol/l to 1.20 mmol/l. During the treatment process, a slowing in the free-radical acidization of lipids was seen; the content of serum malondialdehyde fell from 0.50 mcmol/ml to 0.31 mcmol/ml, diethynoid conjugates fell from 1.332 mcmol/ml to 0.70 mcmol/ml, triethynoid conjugates declined from 0.23 mcmol/ml to 0.14 mcmol/ml; the a-tocopherol content recovered from 2.69 mcmol/ml to 4.32 mcmol/ml; the glutathione reductase activity went from 12.4 mcmol/l h to 22.0 mcmol/l h. On the electrocardiogram, a decrease in the T index from 35.0 to 0, in the SST from 11.0 to 0, and in the NST from 10.0 to 0 were seen. […] Angina pain and shortness of breath not present; nitroglycerine tablets not used. Vertigo and headaches had decreased.
Thus in the process of treatment, in the patient who took Valacyclovir, lipidogram, peroxide acidization of lipids, electrocardiography, and tetrapolar rheography indicators normalized. Valacyclovir side effects were not observed.

[3] = Patient M.
[4] = Example 4: patient with ischemic heart disease, lipid and liver complexes after Zocor and then combination anti-viral therapy; format: in vivo, human; settings: after six months of Zocor 20 mg/day, goal indicator 4.0

Question: For Nc1nc2c(ncn2COCCO)c(=O)[nH]1 [Acyclovir], which “long-term remission of the illness or substantial positive stabilization of the patient's condition” value [1] is on record?
Answer: Its value is “does not provide long-term remission”.

Question: Which serum malondialdehyde content ([2]; after Valacyclovir 1.0 g three times a day + anti-angina drugs, before 0.50) does the source give for CC(C)[C@H](N)C(=O)OCCOCn1cnc2c(=O)[nH]c(N)nc21 [Valacyclovir] here?
Answer: Its serum malondialdehyde content is 0.31 mcmol/ml.

Question: And the “LDL in blood serum” value ([2]; after Valacyclovir 1.0 g three times a day + anti-angina drugs, before 1.55)?
Answer: The value was 0.47 mmol/L.

Question: And the “cholesterol/LDL in blood serum” value ([2]; after Valacyclovir 1.0 g three times a day + anti-angina drugs, before 3.99)?
Answer: Its value is 3.68 mmol/L.

Question: What about the “electrocardiogram NST” value ([2]; after Valacyclovir 1.0 g three times a day + anti-angina drugs, before 10.0) of the same compound?
Answer: The value was 0.

Question: And the “electrocardiogram SST” value ([2]; after Valacyclovir 1.0 g three times a day + anti-angina drugs, before 11.0)?
Answer: The value was 0.

Question: What about the “electrocardiogram T index” value ([2]; after Valacyclovir 1.0 g three times a day + anti-angina drugs, before 35.0) of the same compound?
Answer: The value was 0.

Question: What about the side effects ([2]; human, in vivo) of the same compound?
Answer: The side effects was “not observed”.

Question: What about the “lipidogram, peroxide acidization of lipids, electrocardiography, and tetrapolar rheography indicators” value ([2]; in the process of treatment, patient who took Valacyclovir) of the same compound?
Answer: The value was “normalized”.

Question: What about the vertigo and headaches ([2]; within seven weeks, Valacyclovir 1.0 g three times a day + anti-angina drugs) of the same compound?
Answer: Its vertigo and headaches is “decreased”.

Question: And the “use of nitroglycerine tablets” value ([2]; within seven weeks, before up to 8 times per day)?
Answer: The value was “not used”.

Question: What about the “long-term remission of the illness or substantial positive stabilization of the patient's condition” value [1] of the same compound?
Answer: The value was “does not provide long-term remission”.

Question: What about the total cholesterol ([3]; after Valacyclovir 1.0 g 3×/day for 3 courses of 7 days, with standard treatment, goal value 5.0) of the same compound?
Answer: Its total cholesterol is 4.7 mmol/L.

Question: Which total cholesterol [4] does the source give for CCC(C)(C)C(=O)O[C@H]1C[C@@H](C)C=C2C=C[C@H](C)[C@H](CC[C@@H]3C[C@@H](O)CC(=O)O3)[C@H]21 [simvastatin] here?
Answer: The total cholesterol was 3.9 mmol/L.

Question: What about the total cholesterol ([3]; after six months of simvastatin 10 mg/day, goal indicator 5.0) of the same compound?
Answer: Its total cholesterol is 4.9 mmol/L.
